Legend:
[1] = in vivo; cited from earlier work
[2] = tested on: genes involved in the pathophysiology of AAA; assay: Drug inhibition effect on differentially expressed genes, overall; format: in vivo, ApoE−/− mice; details: sum of heat map grades over 25 genes; ApoE−/− + Ang II group scored 55
Description: (§1) ApoE−/− mice used in this study were divided into different pretreatment groups: 1) Fluvastatin-MF; 2) Doxycycline-MD; 3) Irbesartan-MI; 4) Telmisartan-MT; 5) Control (water) and fed medicated chow or medicated drinking water 1 week prior to pump implantation. AngII (1000 ng·kg^−1 of body weight·min^−1) was infused subcutaneously via Alzet mini-osmotic pumps for 28 days. All mice were maintained on the medicated chow (MI & MT) or medicated drinking water (MF & MD) treatments which were delivered daily for a total of 28 days following pump implantation.
(§2) In order to determine the effect of the various treatments on the progressive enlargement of the experimental AAAs the mice were followed with high frequency trans-abdominal ultrasound. Maximum aortic diameter was measured and recorded prior to pump implantation and then at 3, 7, 14, 21, and 28 days. All mice were sacrificed 28 days after pump implantation. Aortae were harvested and subjected to either histological analysis (Elastic Masson trichome, MAC2, CD31 and TUNEL staining) and analysis of mural gene expression. Plasma drug concentrations of experimental compounds were quantified on the day of sacrifice using high performance liquid chromatography (HPLC).
(§3) Total RNA was extracted from homogenized aortas using the Qiazol lysis reagent and RNeasy Lipid Tissue Mini kit. DNAse treatment was included in the procedure. RNA concentration was determined utilizing the Quant iT RNA assay kit. Complimentary deoxyribonucleic acid (cDNA) was synthesized from 1 μg RNA using High reverse cDNA transcription kit. Briefly the reaction tubes containing RNA, reverse transcriptase, buffer, RNAse inhibitor, and nuclease free water were incubated at 25° C. for 10 minutes to allow annealing. Reverse transcription was performed at 37° C. for 120 min, followed by a 5 sec incubation at 85° C. to inactivate the reverse transcriptase enzyme. The cDNA samples were cooled at 4° C. and stored at −80° C. until further use.
(§4) Real time PCR was performed using a 384-well Taqman low density array (TLDA) card. Each sample specific PCR mix contained 50 ng of total RNA converted to cDNA. The PCR reaction for Taqman assays contained 50 μl Master Mix (Taqman Universal PCR Master Mix,) and 50 ul of cDNA and RNAase free water. Assays were performed to include appropriate controls (no template control). The RT-PCR protocol included an initial step of 50° C. (2 minutes) […], denaturation by a hot start at 95° C. for 10 min, followed by 40 cycles of a 2 step program (denaturation at 95° C. for 15 secs for primer annealing/extension at 60° C. for 1 min). Fluorescence data was collected at 60° C. Fluorescence was quantified with ABI PRISM 7900HT Sequence Detection System. To verify amplification of a specific target cDNA, data generated was analyzed using SDS 2.2.3 software (Sequence Detection System Software, Applied Biosystems). For all amplification plots, the baseline data were set with the automatic CT function available with SDS 2.2.3 calculating the optimal baseline range and threshold value by using the AutoCT algorithm. According to the manufacturer's instruction, a CT value of ≧39 corresponds to nonspecific amplification marking the limits of detection. For endogenous control GAPDH was normalized to B2M. For relative quantification (RQ), pooled ApoE−/− control was used as the calibrator (with expression equal to 1).

MAPK8 = assay: Aortic mural gene expression, RT-PCR (TLDA); format: in vivo, ApoE−/− mice; details: fold change over ApoE−/− control; aorta, 28 days Ang II infusion
Description: as §1, §2, §3, §4

Osteopontin = assay: Aortic mural gene expression, RT-PCR (TLDA); format: in vivo, ApoE−/− mice; details: fold change over ApoE−/− control; aorta, 28 days Ang II infusion
Description: as §1, §2, §3, §4

Tgfβ1 = assay: Aortic mural gene expression, RT-PCR (TLDA); format: in vivo, ApoE−/− mice; details: fold change over ApoE−/− control; aorta, 28 days Ang II infusion
Description: as §1, §2, §3, §4

ITGB2 = assay: Aortic mural gene expression, RT-PCR (TLDA); format: in vivo, ApoE−/− mice; details: fold change over ApoE−/− control; aorta, 28 days Ang II infusion
Description: as §1, §2, §3, §4

Cathepsin B = assay: Aortic mural gene expression, RT-PCR (TLDA); format: in vivo, ApoE−/− mice; details: fold change over ApoE−/− control; aorta, 28 days Ang II infusion
Description: as §1, §2, §3, §4

Rac2 = assay: Aortic mural gene expression, RT-PCR (TLDA); format: in vivo, ApoE−/− mice; details: fold change over ApoE−/− control; aorta, 28 days Ang II infusion
Description: as §1, §2, §3, §4

TIMP2 = assay: Aortic mural gene expression, RT-PCR (TLDA); format: in vivo, ApoE−/− mice; details: fold change over ApoE−/− control; aorta, 28 days Ang II infusion
Description: as §1, §2, §3, §4

MMP-12 = assay: Aortic mural gene expression, RT-PCR (TLDA); format: in vivo, ApoE−/− mice; details: fold change over ApoE−/− control; aorta, 28 days Ang II infusion
Description: as §1, §2, §3, §4

Fibronectin -1 = assay: Aortic mural gene expression, RT-PCR (TLDA); format: in vivo, ApoE−/− mice; details: fold change over ApoE−/− control; aorta, 28 days Ang II infusion
Description: as §1, §2, §3, §4

Vav1 = assay: Aortic mural gene expression, RT-PCR (TLDA); format: in vivo, ApoE−/− mice; details: fold change over ApoE−/− control; aorta, 28 days Ang II infusion
Description: as §1, §2, §3, §4

TNF-α = assay: Aortic mural gene expression, RT-PCR (TLDA); format: in vivo, ApoE−/− mice; details: fold change over ApoE−/− control; aorta, 28 days Ang II infusion
Description: as §1, §2, §3, §4

MMP-8 = assay: Aortic mural gene expression, RT-PCR (TLDA); format: in vivo, ApoE−/− mice; details: fold change over ApoE−/− control; aorta, 28 days Ang II infusion
Description: as §1, §2, §3, §4

Cathepsin S = assay: Aortic mural gene expression, RT-PCR (TLDA); format: in vivo, ApoE−/− mice; details: fold change over ApoE−/− control; aorta, 28 days Ang II infusion
Description: as §1, §2, §3, §4

Cybb = assay: Aortic mural gene expression, RT-PCR (TLDA); format: in vivo, ApoE−/− mice; details: fold change over ApoE−/− control; aorta, 28 days Ang II infusion
Description: as §1, §2, §3, §4

ITGAL = assay: Aortic mural gene expression, RT-PCR (TLDA); format: in vivo, ApoE−/− mice; details: fold change over ApoE−/− control; aorta, 28 days Ang II infusion
Description: as §1, §2, §3, §4

LOX = assay: Aortic mural gene expression, RT-PCR (TLDA); format: in vivo, ApoE−/− mice; details: fold change over ApoE−/− control; aorta, 28 days Ang II infusion
Description: as §1, §2, §3, §4

CXCR4 = assay: Aortic mural gene expression, RT-PCR (TLDA); format: in vivo, ApoE−/− mice; details: fold change over ApoE−/− control; aorta, 28 days Ang II infusion
Description: as §1, §2, §3, §4

CCL2 = assay: Aortic mural gene expression, RT-PCR (TLDA); format: in vivo, ApoE−/− mice; details: fold change over ApoE−/− control; aorta, 28 days Ang II infusion
Description: as §1, §2, §3, §4

HMOX 1 = assay: Aortic mural gene expression, RT-PCR (TLDA); format: in vivo, ApoE−/− mice; details: fold change over ApoE−/− control; aorta, 28 days Ang II infusion
Description: as §1, §2, §3, §4

IL-7 = assay: Aortic mural gene expression, RT-PCR (TLDA); format: in vivo, ApoE−/− mice; details: fold change over ApoE−/− control; aorta, 28 days Ang II infusion
Description: as §1, §2, §3, §4

Runx3 = assay: Aortic mural gene expression, RT-PCR (TLDA); format: in vivo, ApoE−/− mice; details: fold change over ApoE−/− control; aorta, 28 days Ang II infusion
Description: as §1, §2, §3, §4

CCR5 = assay: Aortic mural gene expression, RT-PCR (TLDA); format: in vivo, ApoE−/− mice; details: fold change over ApoE−/− control; aorta, 28 days Ang II infusion
Description: as §1, §2, §3, §4

CCR2 = assay: Aortic mural gene expression, RT-PCR (TLDA); format: in vivo, ApoE−/− mice; details: fold change over ApoE−/− control; aorta, 28 days Ang II infusion
Description: as §1, §2, §3, §4

CSF1 = assay: Aortic mural gene expression, RT-PCR (TLDA); format: in vivo, ApoE−/− mice; details: fold change over ApoE−/− control; aorta, 28 days Ang II infusion
Description: (§5) Total RNA was extracted from homogenized aortas using the Qiazol lysis reagent and RNeasy Lipid Tissue Mini kit. DNAse treatment was included in the procedure. RNA concentration was determined utilizing the Quant iT RNA assay kit. Complimentary deoxyribonucleic acid (cDNA) was synthesized from 1 μg RNA using High reverse cDNA transcription kit. Briefly the reaction tubes containing RNA, reverse transcriptase, buffer, RNAse inhibitor, and nuclease free water were incubated at 25° C. for 10 minutes to allow annealing. […] The cDNA samples were cooled at 4° C. and stored at −80° C. until further use.
(§6) Real time PCR was performed using a 384-well Taqman low density array (TLDA) card. Each sample specific PCR mix contained 50 ng of total RNA converted to cDNA. The PCR reaction for Taqman assays contained 50 μl Master Mix (Taqman Universal PCR Master Mix,) and 50 ul of cDNA and RNAase free water. Assays were performed to include appropriate controls (no template control). The RT-PCR protocol included an initial step of 50° C. […] Fluorescence data was collected at 60° C. Fluorescence was quantified with ABI PRISM 7900HT Sequence Detection System. To verify amplification of a specific target cDNA, data generated was analyzed using SDS 2.2.3 software (Sequence Detection System Software, Applied Biosystems). […] For relative quantification (RQ), pooled ApoE−/− control was used as the calibrator (with expression equal to 1).

NFKb1 = assay: Aortic mural gene expression, RT-PCR (TLDA); format: in vivo, ApoE−/− mice; details: fold change over ApoE−/− control; aorta, 28 days Ang II infusion
Description: as §5, §6

For `CCC(=O)O[C@@H](O[P@](=O)(CCCCc1ccccc1)CC(=O)N1C[C@H](C2CCCCC2)C[C@H]1C(=O)O)C(C)C` [fosinopril], which Route of clearance/elimination [1] is on record?
The Route of clearance/elimination was “balanced elimination by the liver and kidneys”.

With `C[C@H]1c2cccc(O)c2C(=O)C2=C(O)[C@]3(O)C(=O)C(C(N)=O)=C(O)[C@@H](N(C)C)[C@@H]3[C@@H](O)[C@@H]21` [Doxycycline] as the compound, how does the “Total Score” value [2] read?
The value was 53.

What about the MAPK8 expression (MAPK8) of the same compound?
The MAPK8 expression was “− (0 to 1 = −)”.

And the Osteopontin expression (Osteopontin)?
The Osteopontin expression was “++++ (>10.1 = ++++)”.

And the Tgfβ1 expression (Tgfβ1)?
Its Tgfβ1 expression is “+++ (3.1 to 10 = +++)”.

What about the ITGB2 expression (ITGB2) of the same compound?
The ITGB2 expression was “++ (1.51 to 3 = ++)”.

What about the “Cathepsin B expression” value (Cathepsin B) of the same compound?
Its value is “++ (1.51 to 3 = ++)”.

And the Rac2 expression (Rac2)?
The Rac2 expression was “+++ (3.1 to 10 = +++)”.

What about the TIMP2 expression (TIMP2) of the same compound?
The TIMP2 expression was “− (0 to 1 = −)”.

And the MMP-12 expression (MMP-12)?
The MMP-12 expression was “++++ (>10.1 = ++++)”.

And the “Fibronectin -1 expression” value (Fibronectin -1)?
The value was “− (0 to 1 = −)”.

And the Vav1 expression (Vav1)?
Its Vav1 expression is “++ (1.51 to 3 = ++)”.

And the TNF-α expression (TNF-α)?
Its TNF-α expression is “++ (1.51 to 3 = ++)”.

And the MMP-8 expression (MMP-8)?
The MMP-8 expression was “++++ (>10.1 = ++++)”.

What about the “Cathepsin S expression” value (Cathepsin S) of the same compound?
Its value is “+++ (3.1 to 10 = +++)”.

What about the Cybb expression (Cybb) of the same compound?
The Cybb expression was “+++ (3.1 to 10 = +++)”.

What about the ITGAL expression (ITGAL) of the same compound?
The ITGAL expression was “+++ (3.1 to 10 = +++)”.

And the LOX expression (LOX)?
Its LOX expression is “− (0 to 1 = −)”.

And the CXCR4 expression (CXCR4)?
The CXCR4 expression was “++++ (>10.1 = ++++)”.

What about the CCL2 expression (CCL2) of the same compound?
The CCL2 expression was “+ (1.1 to 1.5 = +)”.

And the “HMOX 1 expression” value (HMOX 1)?
Its value is “++++ (>10.1 = ++++)”.

And the IL-7 expression (IL-7)?
Its IL-7 expression is “− (0 to 1 = −)”.

And the Runx3 expression (Runx3)?
Its Runx3 expression is “+++ (3.1 to 10 = +++)”.

What about the CCR5 expression (CCR5) of the same compound?
Its CCR5 expression is “+++ (3.1 to 10 = +++)”.

What about the CCR2 expression (CCR2) of the same compound?
The CCR2 expression was “+++ (3.1 to 10 = +++)”.

And the CSF1 expression (CSF1)?
Its CSF1 expression is “− (0 to 1 = −)”.

And the NFKb1 expression (NFKb1)?
The NFKb1 expression was “− (0 to 1 = −)”.

From patent US20120239131A1, “METHODS AND APPARATUS FOR TREATMENT OF ANEURYSMAL TISSUE” (Medtronic Vascular, Inc., priority 2011, published 2012)
